Reference: patent publication US10336739B2, “4-hydroxy-3-(heteroaryl)pyridine-2-one APJ agonists” (BRISTOL-MYERS SQUIBB COMPANY, priority 2015, dated 2019)

These compounds were tested against human APJ receptor (Homo sapiens (Human), UniProt P35414) (assay: Intracellular cAMP accumulation assay (APJ hcAMP, HTRF)). Details: HEK293 cells stably expressing human APJ receptor; inhibition of forskolin-mediated cAMP production; read-out: hAPJ cAMP EC50 Potency range.
Assay type: cell-based
Description: Intracellular cAMP Accumulation Assay
HEK293 cells stably expressing human APJ receptor were used to assess the activity of compounds. Cultured cells were detached and resuspended in the cAMP Homogeneous Time-Resolved Fluorescence (HTRF) assay buffer (Cisbio cat; #62AM4PEJ). The assay was performed in 384-well assay plates (Perkin-Elmer; cat #6008289) according to assay protocol provided by the manufacturer. Serial dilutions of a compound together with assay buffer containing […] and 2 μM forskolin were added to each well containing 5,000 cells and incubated for 30 minutes at room temperature. Subsequently, cAMP D2 reagent was added in the lysis buffer followed by the EuK antibody (Cisbio; cat #62AM4PEJ) and incubated for 60 min. The fluorescence emission ratio was measured using fluorometer. The intracellular cAMP concentrations (compound-stimulated inhibition of forskolin-mediated cAMP production) were calculated by extrapolation from a standard curve using known cAMP concentrations. The EC50 values were obtained by fitting the data to a sigmoidal concentration-response curve with variable slope.

human APJ receptor, sequence (P35414 whole entry): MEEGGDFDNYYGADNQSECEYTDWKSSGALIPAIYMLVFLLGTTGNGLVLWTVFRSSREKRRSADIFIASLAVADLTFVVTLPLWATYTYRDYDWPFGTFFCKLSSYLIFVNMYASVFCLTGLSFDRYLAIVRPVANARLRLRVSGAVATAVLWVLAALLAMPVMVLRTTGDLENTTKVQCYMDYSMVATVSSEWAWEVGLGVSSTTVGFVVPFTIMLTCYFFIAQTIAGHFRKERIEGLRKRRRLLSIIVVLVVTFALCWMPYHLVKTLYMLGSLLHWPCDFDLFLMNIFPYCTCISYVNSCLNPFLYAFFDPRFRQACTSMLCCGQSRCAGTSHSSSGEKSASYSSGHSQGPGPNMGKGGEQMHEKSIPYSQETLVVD

SMILES	EC50
CCCCc1nc(O)c(-c2nnc(CCc3ncc(-c4ccccc4)o3)o2)c(O)c1-c1c(OC)cccc1OC [Example 28, 6-butyl-5-(2,6-dimethoxyphenyl)-3-{5-[2-(5-phenyl-1,3-oxazol-2-yl)ethyl]-1,3,4-oxadiazol-2-yl}pyridine-2,4-diol]	10 to 100 nM
CCCCc1nc(O)c(-c2nnc(CCc3nccn3C)o2)c(O)c1-c1c(OC)cccc1OC [Example 29, 6-butyl-5-(2,6-dimethoxyphenyl)-3-{5-[2-(1-methyl-1H-imidazol-2-yl)ethyl]-1,3,4-oxadiazol-2-yl}pyridine-2,4-diol]	0.01 to 10 nM
CCCCc1nc(O)c(-c2nnc(C(C)(C)c3ccc(Cl)cc3)o2)c(O)c1-c1c(OC)cccc1OC [Example 31, 6-butyl-3-{5-[2-(4-chlorophenyl)propan-2-yl]-1,3,4-oxadiazol-2-yl}-5-(2,6-dimethoxyphenyl) pyridine-2,4-diol]	0.01 to 10 nM
CCCCc1nc(O)c(-c2nnc(Cc3ccc(F)c(C(F)(F)F)c3)o2)c(O)c1-c1c(OC)cccc1OC [Example 34, 6-butyl-5-(2,6-dimethoxyphenyl)-3-(5-{[4-fluoro-3-(trifluoromethyl)phenyl]methyl}-1,3,4-oxadiazol-2-yl)pyridine-2,4-diol]	10 to 100 nM
CCCCc1nc(O)c(-c2nnc(Cc3c(C)n[nH]c3C)o2)c(O)c1-c1c(OC)cccc1OC [Example 36, 6-butyl-5-(2,6-dimethoxyphenyl)-3-{5-[(3,5-dimethyl-1H-pyrazol-4-yl)methyl]-1,3,4-oxadiazol-2-yl}pyridine-2,4-diol]	10 to 100 nM
CCCCc1nc(O)c(-c2nnc(Cc3csc(-c4ccc(Cl)cc4)n3)o2)c(O)c1-c1c(OC)cccc1OC [Example 39, 6-butyl-3-(5-{[2-(4-chlorophenyl)-1,3-thiazol-4-yl]methyl}-1,3,4-oxadiazol-2-yl)-5-(2,6-dimethoxyphenyl) pyridine-2,4-diol]	10 to 100 nM
CCCCc1nc(O)c(-c2nnc(C(C)c3ccc(Cl)cc3)o2)c(O)c1-c1c(OC)cccc1OC (stereo not shown) [Example 40, 6-butyl-3-{5-[1-(4-chlorophenyl)ethyl]-1,3,4-oxadiazol-2-yl}-5-(2,6-dimethoxyphenyl) pyridine-2,4-diol]	0.01 to 10 nM
CCCCc1nc(O)c(-c2nnc(Cc3nonc3C)o2)c(O)c1-c1c(OC)cccc1OC [Example 41, 6-butyl-5-(2,6-dimethoxyphenyl)-3-{5-[(4-methyl-1,2,5-oxadiazol-3-yl)methyl]-1,3,4-oxadiazol-2-yl}pyridine-2,4-diol]	0.01 to 10 nM
CCCCc1nc(O)c(-c2nnc(Cc3n[nH]c4ccccc34)o2)c(O)c1-c1c(OC)cccc1OC [Example 43, 6-butyl-5-(2,6-dimethoxyphenyl)-3-[5-(1H-indazol-3-ylmethyl)-1,3,4-oxadiazol-2-yl]pyridine-2,4-diol]	0.01 to 10 nM
CCCCc1nc(O)c(-c2nnc(Cc3n[nH]c(=O)c4ccccc34)o2)c(O)c1-c1c(OC)cccc1OC [Example 44, 4-({5-[6-butyl-5-(2,6-dimethoxyphenyl)-2,4-dihydroxypyridin-3-yl]-1,3,4-oxadiazol-2-yl}methyl)-1,2-dihydrophthalazin-1-one]	10 to 100 nM
CCCCc1nc(O)c(-c2nnc(C(OC)c3ccccc3)o2)c(O)c1-c1c(OC)cccc1OC (stereo not shown) [Example 45, 6-butyl-5-(2,6-dimethoxyphenyl)-3-{5-[methoxy(phenyl)methyl]-1,3,4-oxadiazol-2-yl}pyridine-2,4-diol]	10 to 100 nM
CCCCc1nc(O)c(-c2nnc(Cc3csc(-c4ccccc4)n3)o2)c(O)c1-c1c(OC)cccc1OC [Example 46, 6-butyl-5-(2,6-dimethoxyphenyl)-3-{5-[(2-phenyl-1,3-thiazol-4-yl)methyl]-1,3,4-oxadiazol-2-yl}pyridine-2,4-diol]	0.01 to 10 nM
CCCCc1nc(O)c(-c2nnc(CCc3nc4ccccc4o3)o2)c(O)c1-c1c(OC)cccc1OC [Example 47, 3-{5-[2-(1,3-benzoxazol-2-yl)ethyl]-1,3,4-oxadiazol-2-yl}-6-butyl-5-(2,6-dimethoxyphenyl) pyridine-2,4-diol]	0.01 to 10 nM
CCCCc1nc(O)c(-c2nnc(Cc3cncs3)o2)c(O)c1-c1c(OC)cccc1OC [Example 49]	100 to 300 nM
CCCCc1nc(O)c(-c2nnc(Cc3cc(C)no3)o2)c(O)c1-c1c(OC)cccc1OC [Example 51, 6-butyl-5-(2,6-dimethoxyphenyl)-3-{5-[(3-methyl-1,2-oxazol-5-yl)methyl]-1,3,4-oxadiazol-2-yl}pyridine-2,4-diol]	0.01 to 10 nM
CCCCc1nc(O)c(-c2nnc(CCc3nc(-c4cnccn4)no3)o2)c(O)c1-c1c(OC)cccc1OC [Example 52, 6-butyl-5-(2,6-dimethoxyphenyl)-3-(5-{2-[3-(pyrazin-2-yl)-1,2,4-oxadiazol-5-yl]ethyl}-1,3,4-oxadiazol-2-yl)pyridine-2,4-diol]	0.01 to 10 nM
CCCCc1nc(O)c(-c2nnc(Cc3nc(-c4ccccn4)no3)o2)c(O)c1-c1c(OC)cccc1OC [Example 55, 6-butyl-5-(2,6-dimethoxyphenyl)-3-(5-{[3-(pyridin-2-yl)-1,2,4-oxadiazol-5-yl]methyl}-1,3,4-oxadiazol-2-yl)pyridine-2,4-diol]	0.01 to 10 nM
CCCCc1nc(O)c(-c2nnc(Cc3cc(F)cc(C(F)(F)F)c3)o2)c(O)c1-c1c(OC)cccc1OC [Example 57, 6-butyl-5-(2,6-dimethoxyphenyl)-3-(5-{[3-fluoro-5-(trifluoromethyl)phenyl]methyl}-1,3,4-oxadiazol-2-yl)pyridine-2,4-diol]	10 to 100 nM
CCCCc1nc(O)c(-c2nnc(CCc3nc4ccccc4n3C)o2)c(O)c1-c1c(OC)cccc1OC [Example 58, 6-butyl-5-(2,6-dimethoxyphenyl)-3-{5-[2-(1-methyl-1H-1,3-benzodiazol-2-yl)ethyl]-1,3,4-oxadiazol-2-yl}pyridine-2,4-diol]	0.01 to 10 nM

Next, values leading:

EC50	SMILES
0.01 to 10 nM	CCCCc1nc(O)c(-c2nnc(Cc3ccc(Cl)nc3)o2)c(O)c1-c1c(OC)cccc1OC [Example 30, 6-butyl-3-{5-[(6-chloropyridin-3-yl)methyl]-1,3,4-oxadiazol-2-yl}-5-(2,6-dimethoxyphenyl) pyridine-2,4-diol]
0.01 to 10 nM	CCCCc1nc(O)c(-c2nnc(Cc3ccc(F)cc3)o2)c(O)c1-c1c(OC)cccc1OC [Example 32, 6-butyl-5-(2,6-dimethoxyphenyl)-3-{5-[(4-fluorophenyl)methyl]-1,3,4-oxadiazol-2-yl}pyridine-2,4-diol]
0.01 to 10 nM	CCCCc1nc(O)c(-c2nnc(Cc3ccc(Cl)c(Cl)c3)o2)c(O)c1-c1c(OC)cccc1OC [Example 33, 6-butyl-3-{5-[(3,4-dichlorophenyl)methyl]-1,3,4-oxadiazol-2-yl}-5-(2,6-dimethoxyphenyl) pyridine-2,4-diol]
0.01 to 10 nM	CCCCc1nc(O)c(-c2nnc(Cc3ccc(Cl)cc3Cl)o2)c(O)c1-c1c(OC)cccc1OC [Example 35, 6-butyl-3-{5-[(2,4-dichlorophenyl)methyl]-1,3,4-oxadiazol-2-yl}-5-(2,6-dimethoxyphenyl) pyridine-2,4-diol]
0.01 to 10 nM	CCCCc1nc(O)c(-c2nnc(Cc3ccc(C#N)cc3)o2)c(O)c1-c1c(OC)cccc1OC [Example 37, 4-({5-[6-butyl-5-(2,6-dimethoxyphenyl)-2,4-dihydroxypyridin-3-yl]-1,3,4-oxadiazol-2-yl}methyl) benzonitrile]
0.01 to 10 nM	CCCCc1nc(O)c(-c2nnc(Cc3ccc(F)c(F)c3)o2)c(O)c1-c1c(OC)cccc1OC [Example 38, 6-butyl-3-{5-[(3,4-difluorophenyl)methyl]-1,3,4-oxadiazol-2-yl}-5-(2,6-dimethoxyphenyl) pyridine-2,4-diol]
10 to 100 nM	CCCCc1nc(O)c(-c2nnc(COc3ccc(F)cc3)o2)c(O)c1-c1c(OC)cccc1OC [Example 42, 6-butyl-5-(2,6-dimethoxyphenyl)-3-[5-(4-fluoro-phenoxymethyl)-1,3,4-oxadiazol-2-yl]pyridine-2,4-diol]
0.01 to 10 nM	CCCCc1nc(O)c(-c2nnc(Cc3ccc(F)c(OC)c3)o2)c(O)c1-c1c(OC)cccc1OC [Example 48, 6-butyl-5-(2,6-dimethoxyphenyl)-3-{5-[(4-fluoro-3-methoxyphenyl)methyl]-1,3,4-oxadiazol-2-yl}pyridine-2,4-diol]
10 to 100 nM	CCCCc1nc(O)c(-c2nnc(COc3ccc(Cl)c(Cl)c3)o2)c(O)c1-c1c(OC)cccc1OC [Example 50, 6-butyl-3-[5-(3,4-dichlorophenoxy-methyl)-1,3,4-oxadiazol-2-yl]-5-(2,6-dimethoxyphenyl) pyridine-2,4-diol]
10 to 100 nM	CCCCc1nc(O)c(-c2nnc(COc3ccc(Cl)cc3)o2)c(O)c1-c1c(OC)cccc1OC [Example 53, 6-butyl-3-[5-(4-chlorophenoxy-methyl)-1,3,4-oxadiazol-2-yl]-5-(2,6-dimethoxyphenyl) pyridine-2,4-diol]
0.01 to 10 nM	CCCCc1nc(O)c(-c2nnc(CC(C)(C)c3ccc(Cl)cc3)o2)c(O)c1-c1c(OC)cccc1OC [Example 54, 6-butyl-3-{5-[2-(4-chlorophenyl)-2-methylpropyl]-1,3,4-oxadiazol-2-yl}-5-(2,6-dimethoxyphenyl) pyridine-2,4-diol]
0.01 to 10 nM	CCCCc1nc(O)c(-c2nnc(Cc3ccc(OC(F)(F)F)cc3)o2)c(O)c1-c1c(OC)cccc1OC [Example 56, 6-butyl-5-(2,6-dimethoxyphenyl)-3-(5-{[4-(trifluoromethoxy)phenyl]methyl}-1,3,4-oxadiazol-2-yl)pyridine-2,4-diol]
